The values that follow come from patent US20240343666A1, “PERINAPHTHENONE COMPOUND AND USE THEREOF” (INSTITUTE OF MEDICINAL BIOTECHNOLOGY, CHINESE ACADEMY OF …, priority 2021, published 2024).

Where two headings read alike, the source gives them in different places.

Data set [1] has as its target influenza virus PA protein (UniProt P15659). Format: cell-based. The settings on record: read-out: PA remaining EC50.
A further data set concerns the target TRIM25 (Homo sapiens, UniProt Q14258). Kind of data set: Biolayer interferometry (BLI) binding to TRIM25. The settings on record: in vitro. An excerpt:
(§1) To further investigate the mechanism of degradation of PA protein by compound C1, the inventors tested the binding ability of the compound to TRIM25 protein and PA protein using biolayer interferometry (BLI). […] Meanwhile, the compounds also have the ability of binding PA in vitro.

Data set [2] deals with influenza A virus (IAV) A/WSN/33 (H1N1). Kind of data set: microbe, parasite or virus in culture. The class given is cell-based. The note with it: read-out: Anti-influenza activity EC50.
The nature of data set [3]: Cell viability assay (CCK-8). The note with it: human; 293T-Gluc cells, CCK-8, 48 h. Format: cell-based. An excerpt:
CCK-8 (Cell Counting Kit-8) kit is a rapid and highly sensitive detection kit based on WST-8 (water-soluble tetrazolium salt, chemical name: 2-(2-methyloxy-4-nitrophenyl)-3-(4-nitrophenyl)-5-(2,4-disulfophenyl)-2H-tetrazole monosodium salt) and widely applied to cell proliferation and cytotoxicity. WST-8 is a compound similar to MTT, and can be reduced by some dehydrogenases in mitochondria to produce orange-yellow formazan in the presence of an electron coupling reagent. The more and faster the cell proliferation, the darker the color; and the greater the cytotoxicity, the lighter the color. For the same cells, there is a linear relationship between the depth of color and the number of cells. The number of living cells can be indirectly reflected by measuring the light absorption value via an enzyme-linked immunosorbent assay instrument at a wavelength of 450 nm. 293T-Gluc cells were inoculated in a 96-well plate at 2.5×10^4 cells per well, and incubated in 100 μL of DMEM culture medium containing 10% FBS. 24 h after cell plating, 1 μL of the gradiently diluted test compound was added per well (the test compound was dissolved in DMSO and diluted with DMSO). Meanwhile, a blank control (only 100 μL of DMEM culture medium was added), a positive control (1 μL Ribavirin was added), and a negative control (1 μL DMSO was added) were set, and incubated at 37° C. for 48 h. The 96-well plate was taken out, and 10 μL of CCK-8 was added to each well. […] The experiment was repeated three times.

In data set [4] the target is T1, PA protein (Influenza A virus, UniProt P15659). Description: In vitro ubiquitination test. The class given is biochemical.
Data set [5] has as its target T1, PA protein. Format: cell-based.
Data set [6] deals with T1, PA protein. Kind of data set: Biolayer interferometry (BLI) binding to PA. The note with it: in vitro.
Excerpt: as §1
On the technique in general: In BLI a coated tip is dipped into the sample, and binding shifts an interference pattern.

Data set [7] has as its target T1, PA protein. Kind of data set: Ubiquitination of PA protein in HEK293T cells (immunoprecipitation, Western Blotting). Format: cell-based. (In general: In western blotting, separated proteins are transferred to a membrane and probed.)
For a further data set, the target named is TRIM25 with PA protein (UniProt P15659+Q14258). Kind of data set: Interaction of TRIM25 with PA in HEK293T cells (co-immunoprecipitation). The class given is cell-based.

TRIM25, sequence (Q14258 whole entry, species assumed): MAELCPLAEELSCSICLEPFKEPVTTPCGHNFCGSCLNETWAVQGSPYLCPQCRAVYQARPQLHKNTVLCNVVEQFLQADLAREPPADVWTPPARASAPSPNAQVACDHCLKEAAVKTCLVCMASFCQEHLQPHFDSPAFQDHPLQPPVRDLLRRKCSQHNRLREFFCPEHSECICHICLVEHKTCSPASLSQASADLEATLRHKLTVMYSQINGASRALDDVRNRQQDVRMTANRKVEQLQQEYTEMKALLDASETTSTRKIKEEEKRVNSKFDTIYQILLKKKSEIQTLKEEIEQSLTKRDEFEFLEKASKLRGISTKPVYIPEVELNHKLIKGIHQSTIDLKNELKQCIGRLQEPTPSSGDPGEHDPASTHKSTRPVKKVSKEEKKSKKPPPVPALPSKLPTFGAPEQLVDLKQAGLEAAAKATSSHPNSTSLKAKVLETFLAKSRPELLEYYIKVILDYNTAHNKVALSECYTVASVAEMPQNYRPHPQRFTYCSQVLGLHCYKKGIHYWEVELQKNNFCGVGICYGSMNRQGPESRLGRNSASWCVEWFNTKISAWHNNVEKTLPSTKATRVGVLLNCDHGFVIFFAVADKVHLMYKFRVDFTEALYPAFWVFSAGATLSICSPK

As for `C/C(=C\C[C@]1(O)C(=O)c2c(O)cc(C)c3c(O)c(C)c(O)c(c23)C1=O)CC/C=C(\C)CCC(O)[C@@]1(C)CC[C@H](C(C)(C)O)O1` (relative stereo) [Compound C10], the DC50 in data set [1] was 880 ± 80 nM. This molecule showed a Kd at TRIM25 of 12 to 43 µM. In addition, the concentration giving a half-maximal response (EC50) in data set [2] worked out at 1220 ± 10 nM. The molecule also displayed a CC50 at 48 h in data set [3] of over 100 µM.

Turning to `C/C(=C\CC/C(C)=C/C[C@]1(O)C(=O)c2c(O)cc(C)c3c(O)c(C)c(O)c(c23)C1=O)CC/C=C(\CO)CC[C@@H](O)C(C)(C)O` [Compound C1], at PA protein [4], the “Polyubiquitination level of PA protein in vitro” value is “can promote the polyubiquitination level of PA protein in vitro”. Further, the DC50 in data set [1] is 440 ± 90 nM. Further, the figures for the Kd at TRIM25 and at PA protein [6] were 12 to 43 µM and 11 µM, respectively. In addition, the EC50 is 450 to 2220 nM in data set [2] (Influenza A virus, 24 h) and 450 ± 40 nM in data set [2]. In addition, the “Expression level of PA protein after treatment with proteasome inhibitor MG-132” value on PA protein [5] is “almost completely restored”. Moreover, at PA protein [5], the “Restoration of PA protein after treatment with lysosome inhibitor ConA” value is listed as “hardly affected”. For the same molecule, in data set [3], the CC50 at 48 h was over 100 µM. For the same molecule, the “Polyubiquitination level of PA protein in cells” value at PA protein [7] is on record as “can promote the polyubiquitination level of PA protein”. Further, the “Interaction of TRIM25 with PA protein” value at TRIM25 with PA protein was “can promote the interaction of TRIM25 with PA protein”.

Consider `CC(C)=CCC/C(=C/CC/C(C)=C/CC/C(C)=C/C[C@]1(O)C(=O)c2c(O)cc(C)c3c(O)c(C)c(O)c(c23)C1=O)CO` [Compound C2], for which, in data set [1], the DC50 was found to be 650 ± 120 nM. In addition, the Kd is 12 to 43 µM on TRIM25 and 58 µM on PA protein [6]. For the same molecule, the EC50 in data set [2] (Influenza A virus, 24 h) is 450 to 2220 nM; in data set [2], 580 ± 60 nM. Moreover, in data set [3], the CC50 at 48 h was over 100 µM.

In the case of `CC(C)=CCC/C(C=O)=C\CC/C(C)=C/CC/C(C)=C/C[C@]1(O)C(=O)c2c(O)cc(C)c3c(O)c(C)c(O)c(c23)C1=O` [Compound C3], the DC50 in data set [1] is 1140 ± 260 nM. For the same molecule, on TRIM25, the Kd was 12 to 43 µM. The EC50 in data set [2] came to 1420 ± 20 nM. The same molecule had a CC50 at 48 h in data set [3] of over 100 µM.

Regarding `CC(C)=CC1C/C(=C/CC/C(C)=C/CC/C(C)=C/C[C@]2(O)C(=O)c3c(O)cc(C)c4c(O)c(C)c(O)c(c34)C2=O)CO1` (some centres unmarked) [Compound C4], the DC50 in data set [1] is 1150 ± 170 nM. On TRIM25, the Kd fell in the range of 12 to 43 µM. Besides, the EC50 in data set [2] was found to be 1250 ± 10 nM. In addition, the CC50 at 48 h in data set [3] was over 100 µM.

Turning to `CC(=O)OC(C=C(C)C)C/C(C)=C/CC/C(C)=C/CC/C(C)=C/C[C@]1(O)C(=O)c2c(O)cc(C)c3c(O)c(C)c(O)c(c23)C1=O` (some centres unmarked) [Compound C5], in data set [1], the DC50 was found to be 730 ± 230 nM. In addition, the Kd at TRIM25 fell in the range of 12 to 43 µM. Further, the EC50 is 450 to 2220 nM in data set [2] (Influenza A virus, 24 h) and 570 ± 80 nM in data set [2]. In [3], this molecule returned a CC50 at 48 h of over 100 µM.

For the molecule `C/C(=C\CC/C(C)=C/C[C@]1(O)C(=O)c2c(O)cc(C)c3c(O)c(C)c(O)c(c23)C1=O)CC/C=C(\C)CC[C@@H](O)C(C)(C)O` [Compound C6], in data set [1], the DC50 turned out to be 2090 ± 520 nM. In addition, the Kd at TRIM25 fell in the range of 12 to 43 µM. Further, in data set [2], the EC50 is 2220 ± 40 nM. The same molecule showed a CC50 at 48 h in data set [3] of over 100 µM.

`C/C(=C\CC/C(C)=C/C[C@]1(O)C(=O)c2c(O)cc(C)c3c(O)c(C)c(O)c(c23)C1=O)CC/C=C(\CO)CCC1OC(C)(C)OC1(C)C` (some centres unmarked) [Compound C7]: in data set [1], the DC50 turned out to be 1050 ± 190 nM. The same molecule returned a Kd on TRIM25 of 12 to 43 µM. Also, the EC50 in data set [2] (Influenza A virus, 24 h) was 450 to 2220 nM; in data set [2], 780 ± 20 nM. For the same molecule, the cytotoxic concentration (CC50) at 48 h in data set [3] is over 100 µM.

As to `C/C(=C\CC/C(C)=C/C[C@]1(O)C(=O)c2c(O)cc(C)c3c(O)c(C)c(O)c(c23)C1=O)CC/C=C(\CCC1OC(C)(C)OC1(C)C)C(=O)O` (some centres unmarked) [Compound C8], the DC50 in data set [1] worked out at 800 ± 120 nM. This molecule also displayed a Kd on TRIM25 of 12 to 43 µM. The half-maximal effective concentration (EC50) in data set [2] (Influenza A virus, 24 h) was 450 to 2220 nM; in data set [2] it was 550 ± 30 nM. In data set [3], this molecule showed a CC50 at 48 h of over 100 µM.

On to `C/C(=C\C[C@]1(O)C(=O)c2c(O)cc(C)c3c(O)c(C)c(O)c(c23)C1=O)CC/C=C(\C)CCC(O)[C@@]1(C)CC[C@@H](C(C)(C)O)O1` (some centres unmarked) [Compound C9], for which the DC50 in data set [1] came out at 1040 ± 80 nM. Further, the equilibrium dissociation constant (Kd) at TRIM25 is 12 to 43 µM. Further, the EC50 in data set [2] amounted to 1020 ± 50 nM. In addition, the 50% cytotoxic concentration (CC50) at 48 h in data set [3] is over 100 µM.

As to `C/C(=C\CC/C(C)=C/C[C@]1(O)C(=O)c2c(O)cc(C)c3c(O)cc(O)c(c23)C1=O)CC/C=C(\CO)CC[C@@H](O)C(C)(C)O` [Compound C11], the DC50 in data set [1] came to 620 ± 150 nM. Also, the Kd at TRIM25 lay in the range of 12 to 43 µM. Moreover, the EC50 in data set [2] was 910 ± 80 nM. Moreover, the half-maximal cytotoxic concentration (CC50) at 48 h in data set [3] was over 100 µM.

Consider `CC(C)=CCC/C(=C/CC/C(C)=C/CC/C(C)=C/C[C@]1(O)C(=O)c2c(O)cc(C)c3c(O)c(C)c(O)c(c23)C1=O)C(=O)O` [Compound C12], for which, in [1], the DC50 came out at 1070 ± 100 nM. The molecule also returned a dissociation constant Kd at TRIM25 of 12 to 43 µM. In addition, the EC50 in [2] came to 920 ± 20 nM. Also, the CC50 at 48 h in data set [3] was over 100 µM.

Turning to `C/C(=C\CC/C(C)=C/C[C@]1(O)C(=O)c2c(O)cc(C)c3c(O)c(C)c(O)c(c23)C1=O)CC/C=C1/CCC(C(C)(C)O)OC1` (some centres unmarked) [Compound C13], the DC50 in data set [1] was 710 ± 20 nM. This molecule came in with a Kd at TRIM25 of 12 to 43 µM. Also, the EC50 was 450 to 2220 nM in data set [2] (Influenza A virus, 24 h) and 650 ± 10 nM in [2]. Further, the CC50 at 48 h in data set [3] is over 100 µM.

Consider `C/C(=C\CC/C(C)=C/C[C@]1(O)C(=O)c2c(O)cc(C)c3c(O)c(C)c(O)c(c23)C1=O)C/C=C/C1(C)CCC(C(C)(C)O)O1` (some centres unmarked) [Compound C14], for which the DC50 in data set [1] amounted to 1020 ± 30 nM. The molecule further came in with a Kd on TRIM25 of 12 to 43 µM. In [2], the EC50 was found to be 1060 ± 90 nM. This molecule also displayed a CC50 at 48 h in [3] of over 100 µM.

Consider `NC(=O)c1ncn([C@@H]2O[C@H](CO)[C@@H](O)[C@H]2O)n1` [Ribavirin, reference compound], for which the EC50 in data set [2] (Influenza A virus, 24 h) amounted to 27800 ± 650 nM. Also, the CC50 at 48 h in data set [3] is over 100 µM.

What is called Kd is the equilibrium constant for the complex coming apart. The EC50 is the concentration at which the effect is half-maximal. By CC50 is commonly meant the concentration at which the toxic effect on the cells reaches its halfway point.
